Source: patent publication US8119638B2, “Compositions and uses of ET743 for treating cancer” (Pharma Mar, S.A., priority 2007, dated 2012)
Entries after “also recorded” stand apart in the source; their conditions may differ. Like-named read-outs stand apart in the source and are kept apart here.

What was measured:
[1] = for recommended dose level (RD): patients
Excerpt: The method consists of administration of drug by intravenous infusion over a period of 72 hrs or less at the recommended dose level (RD) with or without combination with other therapeutic agents.
The Recommended Dose (RD) is the highest dose which can be safely administered to a patient producing tolerable, manageable and reversible toxicity according to the Common Toxicity Criteria established by the National Cancer Institute (USA), with no more than 2 out of 6 patients presenting any dose limiting toxicities (DLT). Guidelines for cancer therapy frequently call for administration of chemotherapeutic agents at the highest safe dose at which toxicity is manageable in order to achieve maximum efficacy (DeVita, V. T. Jr., Hellman, S, and Rosenberg, S. A., Cancer: Principles and Practice of Oncology, 3rd ed., 1989, Lipincott, Philadelphia).

[2] = system: advanced and/or metastatic cancers refractory to previous treatments; test: Clinical trials using the method of the invention: plasma levels and objective responses; assay type: in vivo, human
Procedure: The administration is performed in cycles, in the preferred application method, an intravenous infusion of ET734 is given to the patients the first week of each cycle, the patients are allowed to recover for the remainder of the cycle. The preferred duration of each cycle is of either 3 or 4 weeks; multiple cycles can be given as needed. The drug may also be administered each of the first days of each cycle. Dose delays and/or dose reductions and schedule adjustments are performed as needed depending on individual patient tolerance of treatments, in particular does reductions are recommended for patients with higher than normal serum levels of liver transaminases or alkaline phosphatase, or bilirubin.
Definitions for patient responses are adopted from WHO Common Toxicity Criteria and the responses determined following standard medical practice in the field.

[3] = system: advanced/metastatic soft tissue sarcoma (STS) and gastrointestinal stromal tumor (GIST); test: Example 1: trials with 24 h iv continuous infusion every 3 or 4 weeks in STS and GIST patients; assay type: in vivo, human; set-up: tolerability of treatment / safety/toxicities observed: dose or concentration left out as unconfirmed; settings: for evaluable patients with stable disease or minor responses: after 2 cycles of therapy
[4] = system: advanced/metastatic breast cancer; test: Example 2: trial with 24 h iv continuous infusion every 3 weeks in pretreated breast cancer patients; assay type: in vivo, human
Procedure: Data was analyzed from a trial with 24 h iv continues infusion of ET 743 every 3 weeks on 20 pretreated advanced/metastatic breast cancer patients, at a dose level of 1500 μg/m^2.
all presenting measurable disease and progressing at study entry age 33 to 64 years (median 50 yrs)
performance status 0-1 (ECOG criteria)
[…] number of involved organs: 2 (range 1-6)

[5] = system: advanced/metastatic soft tissue sarcoma; test: Example 3: trial with 24 h iv continuous infusion every 3 weeks in pretreated sarcoma patients; assay type: in vivo, human
Procedure: Data was analyzed from a trial with 24 h iv continues infusion of ET 743 every 3 weeks on 20 pretreated advanced/metastatic soft tissue sarcoma patients, with all except two patients being treated at a dose level of 1500 μg/m^2
35 Soft tissue sarcoma (STS)
22 patients had bulky disease at study entry, with 56% of disease progression under prior regime
age 16 to 71 years (median 45 yrs)
performance status 0 (0-2) (ECOG criteria)
[…] number of prior chemotherapy treatments 2 (1-7)
Most patients had received as prior chemotherapy treatments Anthracyclines and alkylators

sc B 16 tumor = sc B 16 tumor model in male rats, dexamethasone pre-treatment plus ET743; settings: Day 14, q2dx5, iv; for Vol. (tumor volume): preliminary results
Procedure: The sc B 16 tumor model in male rats was used to compare dexamethasone pre-treated (3 mg/kg total dose; −15 min.), ET743 (90 μg/kg TD) animals to ET alone on a q2dx5, iv, schedule.

[6] = system: advanced and/or metastatic cancers refractory to previous treatments; settings: cited from earlier work
[7] = system: advanced/metastatic soft tissue sarcoma; test: Example 3: trial with 24 h iv continuous infusion every 3 weeks in pretreated sarcoma patients; assay type: in vivo, human; settings: 34 evaluable patients
[8] = system: xenografts of breast cancer, non-small cell lung, melanoma and ovarian cancer; settings: cited from earlier work
[9] = 24 h iv continuous infusion every 3 or 4 weeks
[10] = 56 cycles administered, 1500 μg/m^2 24 h infusion every 3 weeks

## COc1cc2c(cc1O)CCN[C@]21CS[C@@H]2c3c(OC(C)=O)c(C)c4c(c3[C@H](COC1=O)N1[C@@H]2[C@H]2c3c(cc(C)c(OC)c3O)C[C@@H]([C@@H]1O)N2C)OCO4 [ET743, ecteinascidin 743]
[1]; 3 hr intravenous infusions
  recommended dose level (RD): 1650 microgram per m2 body surface area
[1]; 3 hr intravenous infusions, listed as ET-743
  recommended dose level (RD): 1650 microgram per m2 body surface
[1]; 24 hr intravenous infusions
  recommended dose level (RD): 1500 microgram per m2 of body surface area
[1]; human, in vivo
  dose limiting toxicities (DLTs): myelosuppression and malaise
  doses with too large a fraction of patients presenting DLT, too toxic for safe administration: ≥ 1800 microgram per m2
  patients presenting severe dose limiting toxic responses: 2 out of 4
  therapeutic window / toxicity: positive therapeutic window with manageable toxicity
[1]; intravenous infusion over 5 consecutive days, 24 hr daily
  RD for this schedule: 1625 microgram per m2 of body surface area
[1]; intravenous infusion over 72 hr
  RD for this schedule: 1050 microgram per m2 of body surface area
[2]; advanced and/or metastatic cancers refractory to previous treatments: soft tissue, bone and gastrointestinal stromal sarcoma, breast cancer and melanoma
  objective responses: Objective responses were obtained
[2]; ovarian cancer
  clinical marker response: positive clinical marker response
[2]; patients at RD
  plasma levels: appropriate plasma levels were achieved
[2]; variety of suboptimal schedules, advanced ocular melanoma and mesothelioma
  activity: Evidence of activity
[3]; [9]
  safety/toxicities observed: Myelosuppression; also recorded: Temporary/asymptomatic transaminitis; also recorded: Fatigue
  tolerability of treatment: very good
[3]; STS patients with prior chemotherapy treatment
  evaluable patients with stable disease or minor responses: 4 out of 12
[3]; STS patients without any prior chemotherapy treatment
  evaluable patients with stable disease or minor responses: 6 out of 10
[3]; liposarcoma, leiomyo sarcoma, and synovial sarcoma
  activity by histology: preliminary evidence of activity
[4]; 16 evaluable patients
  patients achieving disease stabilization: Six
[4]; 16 evaluable patients, pleuropulmonary and thoracic skin involvement, no primary resistance to either pretreatment drug
  partial responses (number of patients): Two
[4]; [10]
  Asthenia (grade 2/3), number reported per cycle: 13
  Asthenia (grade 2/3), reported per cycle (percent): 23%
  Neutropenia, grade 3 or 4 toxicities reported per cycle (percent): 50%
  Neutropenia, number of grade 3 or 4 toxicities reported per cycle: 25
  Reversible transaminitis, grade 3 or 4 toxicities reported per cycle (percent): 60%
  Reversible transaminitis, number of grade 3 or 4 toxicities reported per cycle: 34
  Thrombocytopenia, grade 3 or 4 toxicities reported per cycle (percent): 2%
  Thrombocytopenia, number of grade 3 or 4 toxicities reported per cycle: 4
[4]; among the stabilized patients
  patients with sustained decrease in CA 15-3: two
[5]; 137 cycles administered
  Acute, reversible transaminitis, grade 3 or 4 toxicities reported per cycle: 44%
  Asthenia (grade 2/3), number reported per cycle: 13
  Asthenia (grade 2/3), reported per cycle (percent): 23%
  Thrombocytopenia, grade 3 or 4 toxicities reported per cycle: 5%
  febrile neutropenia, grade 3 or 4 toxicities reported per cycle: 6.5%
[5]; 137 cycles administered, 1500 μg/m^2 24 h infusion every 3 weeks
  Neutropenia, grade 3 or 4 toxicities reported per cycle: 34%
[5]; osteo sarcoma patients
  responses in osteo sarcomas: 2 out of 3
Sc B 16 tumor
  Vol. (tumor volume): 15,243 mm^3
[6]; breast cancer, dose level of 1800 microgram m2
  patient response (case reported in June 98): breast cancer response
[6]; melanoma patient, 1 hr infusion
  patient response (previously reported case): response in a melanoma patient
[7]
  disease stabilizations (number): 11
  duration of most disease stabilizations: ≥ 3 months
  minor responses (number): 3
  minor responses which became post surgical complete response: one
  partial responses (number): 4
  partial responses (percent): 11.7%
  partial responses which became post surgical complete response: two
[8]
  action in animal models: promising action

## C[C@@H]1C[C@H]2[C@@H]3CCC4=CC(=O)C=C[C@]4(C)[C@@]3(F)[C@@H](O)C[C@]2(C)[C@@]1(O)C(=O)CO [DEX, dexamethasone]
[3]; dexamethasone as a prophylactic anti emetic with ET 743 24 h infusion
  nausea: essentially eliminated
Sc B 16 tumor
  BW (body weight): 217 grams
  Vol. (tumor volume): 17,252 mm^3
